Data as given in ChEMBL document CHEMBL1201862, “PubChem BioAssay data set” (2004).
The source made the active and inactive calls.

How the values were obtained:
[1] = miR-122 activators in hepatoma reporter cells, dose response, cell-based, Huh7 psiCHECK-miR122, Renilla luciferase, cherry-picked (AID 651956); format: functional;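 note: huh7 hepatoma cells stably carrying a psiCHECK-2 miR-122 sensor plasmid; renilla luciferase signal reporting endogenous miR-122 activity after 48 h compound exposure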
Cytochrome P450 2C9 = Cytochrome P450 2C9 (Homo sapiens, UniProt P11712)
Cytochrome P450 2C9, sequence (P11712 whole entry): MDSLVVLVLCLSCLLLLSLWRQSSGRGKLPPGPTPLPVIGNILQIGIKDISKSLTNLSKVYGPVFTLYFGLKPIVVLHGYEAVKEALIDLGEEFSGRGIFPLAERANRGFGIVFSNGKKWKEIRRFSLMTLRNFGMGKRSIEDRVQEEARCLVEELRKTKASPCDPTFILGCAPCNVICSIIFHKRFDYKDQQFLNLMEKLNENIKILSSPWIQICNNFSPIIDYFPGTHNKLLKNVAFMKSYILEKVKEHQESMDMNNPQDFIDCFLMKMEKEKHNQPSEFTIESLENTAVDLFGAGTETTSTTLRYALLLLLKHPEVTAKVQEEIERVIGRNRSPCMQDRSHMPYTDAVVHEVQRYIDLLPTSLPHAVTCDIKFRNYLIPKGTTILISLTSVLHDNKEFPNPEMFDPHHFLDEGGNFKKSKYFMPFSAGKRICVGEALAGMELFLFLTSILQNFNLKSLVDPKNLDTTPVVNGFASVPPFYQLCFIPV

Cytochrome P450 2C19 = Cytochrome P450 2C19 (Homo sapiens, UniProt P33261); experiment: Cytochrome panel assay with activity outcomes. Panel member name: p450-cyp2c19 Compounds with AC50 equal or less than 10 uM are considered active; format: functional; conditions: read-out: AC50
Cytochrome P450 2C19, sequence (P33261 whole entry): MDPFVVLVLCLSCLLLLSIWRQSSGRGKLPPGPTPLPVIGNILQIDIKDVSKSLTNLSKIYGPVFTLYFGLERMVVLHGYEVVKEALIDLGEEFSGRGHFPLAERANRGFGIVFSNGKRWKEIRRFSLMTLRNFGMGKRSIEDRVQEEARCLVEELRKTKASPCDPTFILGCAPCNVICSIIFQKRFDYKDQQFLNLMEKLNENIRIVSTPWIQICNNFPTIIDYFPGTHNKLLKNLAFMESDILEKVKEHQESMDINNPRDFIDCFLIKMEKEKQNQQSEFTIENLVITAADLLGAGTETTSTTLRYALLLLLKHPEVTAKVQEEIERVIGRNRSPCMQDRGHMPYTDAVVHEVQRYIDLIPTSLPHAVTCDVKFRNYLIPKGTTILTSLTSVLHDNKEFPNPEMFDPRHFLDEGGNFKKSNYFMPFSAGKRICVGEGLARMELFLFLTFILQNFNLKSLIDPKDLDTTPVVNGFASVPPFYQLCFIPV

Cytochrome P450 1A2 = target: T1, Cytochrome P450 1A2 (Homo sapiens, UniProt P05177);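 note: PubChem cytochrome P450 panel assay, CYP1A2 panel member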
T1 sequence (P05177 whole entry): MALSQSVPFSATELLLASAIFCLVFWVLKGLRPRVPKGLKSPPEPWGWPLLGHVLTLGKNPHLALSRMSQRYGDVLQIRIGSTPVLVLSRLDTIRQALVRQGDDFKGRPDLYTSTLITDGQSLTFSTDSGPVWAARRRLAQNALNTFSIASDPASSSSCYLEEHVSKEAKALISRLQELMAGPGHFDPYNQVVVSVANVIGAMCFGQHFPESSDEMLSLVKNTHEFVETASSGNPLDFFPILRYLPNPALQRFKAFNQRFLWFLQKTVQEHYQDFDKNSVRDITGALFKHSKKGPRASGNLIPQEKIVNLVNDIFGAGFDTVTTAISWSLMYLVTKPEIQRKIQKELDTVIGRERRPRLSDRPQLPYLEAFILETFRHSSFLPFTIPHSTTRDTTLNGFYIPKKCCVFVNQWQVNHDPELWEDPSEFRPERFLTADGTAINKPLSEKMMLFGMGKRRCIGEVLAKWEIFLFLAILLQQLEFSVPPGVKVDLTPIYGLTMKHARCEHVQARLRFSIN

Protein skinhead-1 = target: T2, Protein skinhead-1 (Caenorhabditis elegans, UniProt P34707); format: functional
T2 sequence (P34707 whole entry): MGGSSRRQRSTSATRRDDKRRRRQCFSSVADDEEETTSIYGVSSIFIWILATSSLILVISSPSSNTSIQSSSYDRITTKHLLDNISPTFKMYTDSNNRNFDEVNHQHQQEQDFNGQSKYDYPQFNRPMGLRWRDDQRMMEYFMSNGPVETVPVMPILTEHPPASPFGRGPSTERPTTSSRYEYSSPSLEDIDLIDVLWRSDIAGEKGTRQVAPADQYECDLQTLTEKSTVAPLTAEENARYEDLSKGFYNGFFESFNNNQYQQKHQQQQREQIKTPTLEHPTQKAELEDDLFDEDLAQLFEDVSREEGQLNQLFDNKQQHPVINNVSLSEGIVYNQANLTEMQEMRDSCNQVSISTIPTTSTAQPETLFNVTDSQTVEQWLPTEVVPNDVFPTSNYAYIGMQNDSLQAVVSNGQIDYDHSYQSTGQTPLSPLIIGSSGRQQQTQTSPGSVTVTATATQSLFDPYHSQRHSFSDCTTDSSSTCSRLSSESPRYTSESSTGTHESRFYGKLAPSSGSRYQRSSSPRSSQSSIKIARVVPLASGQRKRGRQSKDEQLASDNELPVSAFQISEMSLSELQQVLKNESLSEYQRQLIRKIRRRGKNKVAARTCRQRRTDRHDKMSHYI

Coagulation factor XII = target: T3, Coagulation factor XII (Homo sapiens, UniProt P00748); format: functional;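 note: activated factor XIIa alpha cleaving a fluorogenic AMC peptide substrate; inhibitor potency from loss of enzyme activity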
T3 sequence (P00748 whole entry): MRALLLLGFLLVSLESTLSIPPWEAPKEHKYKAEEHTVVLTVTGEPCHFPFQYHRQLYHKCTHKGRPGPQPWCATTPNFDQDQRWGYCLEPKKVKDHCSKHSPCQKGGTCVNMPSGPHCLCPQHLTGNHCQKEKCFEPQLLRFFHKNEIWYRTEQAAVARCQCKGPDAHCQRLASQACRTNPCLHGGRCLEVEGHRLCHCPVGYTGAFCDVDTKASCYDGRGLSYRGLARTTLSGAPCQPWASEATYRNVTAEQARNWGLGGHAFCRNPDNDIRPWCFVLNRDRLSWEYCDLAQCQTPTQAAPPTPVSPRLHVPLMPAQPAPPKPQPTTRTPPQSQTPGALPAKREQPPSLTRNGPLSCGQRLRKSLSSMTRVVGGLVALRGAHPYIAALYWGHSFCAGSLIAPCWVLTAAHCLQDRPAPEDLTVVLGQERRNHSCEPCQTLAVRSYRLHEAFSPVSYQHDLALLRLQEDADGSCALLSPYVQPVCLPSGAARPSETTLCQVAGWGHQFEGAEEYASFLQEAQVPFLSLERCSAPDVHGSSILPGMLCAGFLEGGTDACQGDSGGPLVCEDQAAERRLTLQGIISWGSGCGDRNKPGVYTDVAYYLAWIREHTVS

[2] = Luminescence Cell-Based Dose Response HTS to Identify Activators of Luciferase Translation or Activity in H4 […] Cells. [Related pubchem assays: 1829 (Project Summary), 1814 (Primary HTS)]; format: functional
H4 = experiment: Luminescence Cell-Based Dose Response HTS to Identify Activators of 5'UTR Stem-Loop Driven Prion Protein mRNA Translation in H4 Neuroglioblastoma Cells. [Related pubchem assays: 1829 (Project Summary), 1814 (Primary HTS)]; format: functional; conditions: Homo sapiens
HeLa = experiment: HeLa cell cytotoxicity, dose response, cytotoxicity control for MITF activator project, CellTiter-Glo luminescence, cherry-pick samples (AID 540259); format: functional, cell-based; conditions: Homo sapiens
[3] = target: T4, Endoribonuclease toxin MazF (Escherichia coli K-12, UniProt P0AE70); experiment: fluorescent RNA oligo signal without MazF, dose response, counter-screen for MazEF activator project, biochemical, fluorescence, single-stranded RNase substrate (AID 588502); format: functional
T4 sequence (P0AE70 whole entry): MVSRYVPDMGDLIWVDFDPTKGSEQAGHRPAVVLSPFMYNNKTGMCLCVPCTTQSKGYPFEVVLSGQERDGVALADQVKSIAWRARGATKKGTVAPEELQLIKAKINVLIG

[4] = target: T4, Endoribonuclease toxin MazF; experiment: MazF toxin RNase activators, dose response, biochemical, fluorescence, single-stranded RNA substrate, uHTS hits (AID 588481); format: functional
[5] = Luminescence Cell-Based Dose Response HTS to Identify Inhibitors of 5'UTR Stem-Loop Driven Prion Protein mRNA Translation in H4 Neuroglioblastoma Cells. [Related pubchem assays: 1827 (Project Summary), 1813 (Primary HTS)]; format: functional
[6] = inhibitors of SNCA 5'UTR-driven reporter translation, confirmation, H4 neuroglioma cells, luminescence (AID 1988); format: functional, cell-based
BJ [7] = experiment: cytotoxicity toward BJ-TERT-LT-ST fibroblasts, dose response, cell-based, RAS-independent, luminescence (AID 1935); format: functional; conditions: Homo sapiens;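 note: BJ fibroblasts immortalized with TERT plus LT and ST oncogenes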
[8] = cytotoxicity toward DRD oncogenic fibroblasts, dose response, cell-based, non-viral oncogenic, luminescence (AID 1934); format: functional; conditions: Homo sapiens
[9] = inhibitors of firefly luciferase expression or activity, dose response, H4 neuroglioma cells, luminescence (AID 1990); format: functional, cell-based
BJ [10] = experiment: cytotoxicity toward BJ-TERT fibroblasts, dose response, cell-based, RAS-independent, luminescence (AID 1933); format: functional; conditions: Homo sapiens
BJ [11] = experiment: cytotoxicity toward Ras-transformed BJeLR fibroblasts, dose response, cell-based, alamar blue fluorescence, cherrypicked samples (AID 2631); format: functional; conditions: Homo sapiens;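 note: confirmatory dose-response assay in RAS-dependent BJ fibroblasts engineered with TERT, LT and ST, with cytotoxicity read by fluorescence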
BJ [12] = experiment: cells; format: functional, cell-based; conditions: Homo sapiens
[13] = target: Ras and Rab interactor 1/Tyrosine-protein kinase ABL1 (Homo sapiens, UniProt P00519+Q13671); format: functional;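 note: biochemical TR-FRET dose-response test measuring inhibition of binding between Rin1 and Abl proteins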
Ras and Rab interactor 1/Tyrosine-protein kinase ABL1, sequence (P00519 whole entry): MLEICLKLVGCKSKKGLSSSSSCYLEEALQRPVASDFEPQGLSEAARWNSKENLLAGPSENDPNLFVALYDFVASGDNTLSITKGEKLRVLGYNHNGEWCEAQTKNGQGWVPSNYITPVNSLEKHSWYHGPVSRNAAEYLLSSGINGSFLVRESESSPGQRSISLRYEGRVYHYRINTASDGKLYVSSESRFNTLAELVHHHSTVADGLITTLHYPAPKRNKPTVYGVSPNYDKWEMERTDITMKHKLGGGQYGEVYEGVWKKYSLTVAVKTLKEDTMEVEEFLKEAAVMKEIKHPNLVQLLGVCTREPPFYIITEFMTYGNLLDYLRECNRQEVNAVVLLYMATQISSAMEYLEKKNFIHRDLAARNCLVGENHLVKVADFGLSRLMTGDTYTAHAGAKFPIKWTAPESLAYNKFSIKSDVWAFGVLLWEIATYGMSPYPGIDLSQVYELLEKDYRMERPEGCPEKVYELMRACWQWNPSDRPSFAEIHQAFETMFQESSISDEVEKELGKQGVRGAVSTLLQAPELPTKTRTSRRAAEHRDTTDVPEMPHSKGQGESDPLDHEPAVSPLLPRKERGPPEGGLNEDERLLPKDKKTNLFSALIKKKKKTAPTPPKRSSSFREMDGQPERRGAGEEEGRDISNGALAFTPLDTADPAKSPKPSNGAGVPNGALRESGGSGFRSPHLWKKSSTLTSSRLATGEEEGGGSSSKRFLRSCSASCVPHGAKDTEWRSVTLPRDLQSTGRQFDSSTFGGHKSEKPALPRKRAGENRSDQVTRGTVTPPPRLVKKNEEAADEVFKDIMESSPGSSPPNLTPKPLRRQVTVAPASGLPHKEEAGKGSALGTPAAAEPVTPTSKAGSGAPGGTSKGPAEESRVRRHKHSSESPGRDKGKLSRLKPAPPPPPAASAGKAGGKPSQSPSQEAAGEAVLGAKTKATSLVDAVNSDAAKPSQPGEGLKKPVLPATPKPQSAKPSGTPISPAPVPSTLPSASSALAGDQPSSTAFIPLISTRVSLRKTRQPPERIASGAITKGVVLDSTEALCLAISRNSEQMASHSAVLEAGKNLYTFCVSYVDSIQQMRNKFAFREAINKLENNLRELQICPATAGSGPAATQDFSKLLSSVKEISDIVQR
Ras and Rab interactor 1/Tyrosine-protein kinase ABL1, sequence (Q13671 whole entry): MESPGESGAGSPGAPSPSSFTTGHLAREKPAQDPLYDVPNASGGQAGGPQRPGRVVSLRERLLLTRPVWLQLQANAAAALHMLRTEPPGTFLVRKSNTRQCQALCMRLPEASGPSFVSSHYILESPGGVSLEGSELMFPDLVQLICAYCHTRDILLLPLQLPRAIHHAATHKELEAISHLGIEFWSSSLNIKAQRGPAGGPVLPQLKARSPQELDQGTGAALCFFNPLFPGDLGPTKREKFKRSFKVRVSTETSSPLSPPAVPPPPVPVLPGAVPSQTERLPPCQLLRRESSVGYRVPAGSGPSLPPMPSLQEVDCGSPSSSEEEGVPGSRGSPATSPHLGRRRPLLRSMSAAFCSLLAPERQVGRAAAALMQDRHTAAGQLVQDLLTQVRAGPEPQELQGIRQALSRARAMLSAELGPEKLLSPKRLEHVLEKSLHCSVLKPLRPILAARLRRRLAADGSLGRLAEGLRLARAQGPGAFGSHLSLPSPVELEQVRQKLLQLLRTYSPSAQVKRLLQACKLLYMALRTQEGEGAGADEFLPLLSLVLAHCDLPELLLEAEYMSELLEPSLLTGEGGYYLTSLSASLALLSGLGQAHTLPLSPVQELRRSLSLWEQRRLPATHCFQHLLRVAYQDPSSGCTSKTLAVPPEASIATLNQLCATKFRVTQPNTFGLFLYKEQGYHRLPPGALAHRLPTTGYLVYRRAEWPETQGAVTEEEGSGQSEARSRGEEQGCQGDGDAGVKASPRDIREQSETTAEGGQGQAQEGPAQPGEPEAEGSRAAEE

In the case of `c1ccc(CCNc2nnnn2-c2ccccc2)cc1`, the AC50 [1] is reported as 9.58 µM (active), the AC50 (Cytochrome P450 2C9) is reported as 11.2 µM (inconclusive) and the AC50 (Cytochrome P450 2C19) is reported as 1.78 µM (inconclusive). The AC50 (Cytochrome P450 1A2) was 2.51 µM (inconclusive) and the IC50 (Protein skinhead-1) was > 100 µM (inactive).
With `COCCN(C(=O)C1CC1)c1nnc(-c2ccc(C)cc2)s1` the IC50 (Coagulation factor XII) was > 50 µM (inactive).
For `CN(C)c1ccc(C(=S)N2CCN(c3ccc([N+](=O)[O-])cc3)CC2)cc1`, the IC50 (Coagulation factor XII) was > 50 µM (inactive).
For `CSc1nccc(N/N=C/c2ccccc2)n1`, the EC50 [2] was 0.32 µM (active), the EC50 (H4) was 2.55 µM (active) and the AC50 (HeLa) was 100 µM (active).
In the case of `COc1ccc(C(=O)N/N=C\c2coc3ccc(C)cc3c2=O)cc1`, the EC50 [3] is reported as > 99 µM (inactive) and the EC50 [4] is reported as > 99 µM (inactive).
For `COc1ccc(S(=O)(=O)N2CCOCC2)cc1NC(=O)CCNC(=O)c1ccc(Br)cc1`, the EC50 [5] was 5.78 µM (active), the EC50 [6] was 1.09 µM (active) and the EC50 (BJ [7]) was 2.02 µM (active). For the same molecule, the EC50 [8] was > 150 µM (not active), the EC50 [9] was 10.6 µM (active) and the EC50 (BJ [10]) was > 150 µM (not active). The EC50 (BJ [11]) was 6.09 µM (active) and the EC50 (BJ [12]) was 2.84 µM (inconclusive).
For `N#C/C(=C\c1ccc([N+](=O)[O-])cc1)c1nc(C2CC2)cs1`, the EC50 [3] was > 99 µM (inactive) and the EC50 [4] was 10.4 µM (active).
With `CSc1ccc(-c2nnn(Cc3ccc(C)cc3)n2)cc1` the AC50 (HeLa) was 98 µM (active).
In the case of `CCOC(=O)c1c(/N=C/C2C(=O)NC(=O)NC2=O)sc2c1CCC2`, the EC50 [3] is reported as > 99 µM (inactive) and the EC50 [4] is reported as > 99 µM (inactive).
For `Cc1onc(-c2c(F)cccc2Cl)c1-c1nnc(-c2ccc(C(F)(F)F)cc2)o1`, the IC50 (Coagulation factor XII) was > 50 µM (inactive).
With `COC(=O)c1cccc(NC(=O)c2ccc[n+]([O-])c2)c1` the IC50 [13] was 18 µM (inactive).
